US7700782B2, “Compounds 569” (AstraZeneca AB, priority 2007, dated 2010)
Where a name gives a salt, the structure may show the parent alone.

Target: T1, Adrenergic β2 (Homo sapiens, UniProt P07550)
T1 construct: Adherent H292 cells were removed from tissue culture flasks; endogenous in cells; host or cells: H292 cells
Assay: Adrenergic β2 mediated cAMP production in H292 cells (AlphaScreen cAMP detection)
Type: cell-based
Conditions: Intrinsic Activity, fraction relative to the maximum activity determined for formoterol
Experimental: Adrenergic β2 Mediated cAMP Production
H292 cells were grown in 225 cm2 flasks incubator at 37° C., 5% CO2 in RPMI medium containing, 10% (v/v) FBS (foetal bovine serum) and 2 mM L-glutamine.
Adherent H292 cells were removed from tissue culture flasks by treatment with Accutase™ cell detachment solution for 15 minutes. Flasks were incubated for 15 minutes in a humidified incubator at 37° C., 5% CO2. Detached cells were re-suspended in RPMI media (containing 10% (v/v) FBS and 2 mM L-glutamine) at 0.05×10^6 cells per mL. 5000 cells in 100 μL were added to each well of a tissue-culture-treated 96-well plate and the cells incubated overnight in a humidified incubator at 37° C., 5% CO2. The culture media was removed and cells were washed twice with 100 μL assay buffer and replaced with 50 μL assay buffer (HBSS solution containing 10 mM HEPES pH 7.4 and 5 mM glucose). Cells were rested at room temperature for 20 minutes after which time 25 μL of rolipram (1.2 mM made up in assay buffer containing 2.4% (v/v) dimethylsulphoxide) was added. Cells were incubated with rolipram for 10 minutes after which time test compounds were added and the cells were incubated for 60 minutes at room temperature. The final rolipram concentration in the assay was 300 μM and final vehicle concentration was 1.6% (v/v) dimethylsulphoxide. The reaction was stopped by removing supernatants, washing once with 100 μL assay buffer and replacing with 50 μL lysis buffer. The cell monolayer was frozen at −80° C. for 30 minutes (or overnight).
The concentration of cAMP (cyclic adenosine monophosphate) in the cell lysate was determined using AlphaScreen™ methodology. The frozen cell plate was thawed for 20 minutes on a plate shaker then 10 μL of the cell lysate was transferred to a 96-well white plate. 40 μL of mixed AlphaScreen™ detection beads pre-incubated with biotinylated cAMP, was added to each well and the plate incubated at room temperature for 10 hours in the dark. The AlphaScreen™ signal was measured using an EnVision spectrophotometer (Perkin-Elmer Inc.) with the recommended manufacturer's settings. cAMP concentrations were determined by reference to a calibration curve determined in the same experiment using standard cAMP concentrations. Concentration response curves for agonists were constructed and data was fitted to a four parameter logistic equation to determine both the pEC50 and Intrinsic Activity. Intrinsic Activity was expressed as a fraction relative to the maximum activity determined for formoterol in each experiment.

T1 sequence (P07550 whole entry): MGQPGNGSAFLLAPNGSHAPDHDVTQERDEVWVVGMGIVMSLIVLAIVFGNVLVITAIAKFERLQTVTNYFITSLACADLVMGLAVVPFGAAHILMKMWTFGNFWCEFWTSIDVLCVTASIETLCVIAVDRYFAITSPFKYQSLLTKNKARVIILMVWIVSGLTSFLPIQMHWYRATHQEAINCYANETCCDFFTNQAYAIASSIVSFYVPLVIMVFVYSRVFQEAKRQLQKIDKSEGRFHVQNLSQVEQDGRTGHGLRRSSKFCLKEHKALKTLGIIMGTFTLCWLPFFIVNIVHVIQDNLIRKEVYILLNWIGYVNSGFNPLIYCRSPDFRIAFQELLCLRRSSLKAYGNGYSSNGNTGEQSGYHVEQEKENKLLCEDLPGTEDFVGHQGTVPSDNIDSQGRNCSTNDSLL

Structure (SMILES): O=C(CCNCCc1cccs1)N(CCNCCc1ccc(O)c2[nH]c(=O)sc12)C1CCCCC1 [Example 35, N-Cyclohexyl-N-(2-{[2-(4-hydroxy-2-oxo-2,3-dihydro-1,3-benzothiazol-7-yl)ethyl]amino}ethyl)-N^3-[2-(2-thienyl)ethyl]-β-alaninamide bis-trifluoroacetic acid salt]
- β2 Int Act: 0.91

Structure (SMILES): O=C(CCNCCc1cccc(F)c1)N(CCNCCc1ccc(O)c2[nH]c(=O)sc12)C1CCCCCC1 [Example 36, N-Cycloheptyl-N^3-[2-(3-fluorophenyl)ethyl]-N-(2-{[2-(4-hydroxy-2-oxo-2,3-dihydro-1,3-benzothiazol-7-yl)ethyl]amino}ethyl)-β-alaninamide bis-trifluoroacetic acid salt]
- β2 Int Act: 0.84

Structure (SMILES): O=C(CCNCCc1cccc(O)c1)N(CCNCCc1ccc(O)c2[nH]c(=O)sc12)C1CCCCCC1 [Example 37, N-Cycloheptyl-N-(2-{[2-(4-hydroxy-2-oxo-2,3-dihydro-1,3-benzothiazol-7-yl)ethyl]amino}ethyl)-N^3-[2-(3-hydroxyphenyl)ethyl]-β-alaninamide bis-trifluoroacetic acid salt]
- β2 Int Act: 0.91

Structure (SMILES): CC(C)(C)CN(CCNCCc1ccc(O)c2[nH]c(=O)sc12)C(=O)CCNC(C)(C)Cc1ccccc1 [Example 38, N^3-(1,1-Dimethyl-2-phenylethyl)-N-(2,2-dimethylpropyl)-N-(2-{[2-(4-hydroxy-2-oxo-2,3-dihydro-1,3-benzothiazol-7-yl)ethyl]amino}ethyl)-β-alaninamide bis-trifluoroacetic acid salt]
- β2 Int Act: 0.42

Structure (SMILES): CC(=O)OCC(C)(C)CN(CCNCCc1ccc(O)c2[nH]c(=O)sc12)C(=O)CCNCCc1ccc(Cl)cc1 [Example 39, 3-[{N-[2-(4-Chlorophenyl)ethyl]-β-alanyl}(2-{[2-(4-hydroxy-2-oxo-2,3-dihydro-1,3-benzothiazol-7-yl)ethyl]amino}ethyl)amino]-2,2-dimethylpropyl acetate diacetic acid salt]
- β2 Int Act: 0.58

Structure (SMILES): CC(C)(CO)CN(CCNCCc1ccc(O)c2[nH]c(=O)sc12)C(=O)CCNCCc1ccc(Cl)cc1 [Example 40, N^3-[2-(4-Chlorophenyl)ethyl]-N-(3-hydroxy-2,2-dimethylpropyl)-N-(2-{[2-(4-hydroxy-2-oxo-2,3-dihydro-1,3-benzothiazol-7-yl)ethyl]amino}ethyl)-β-alaninamide diacetic acid salt]
- β2 Int Act: 0.64

Structure (SMILES): O=C(CCNCCc1ccccc1)N(CCNCCc1ccc(O)c2[nH]c(=O)sc12)C1Cc2ccccc2C1 [Example 41, N^1-(2,3-Dihydro-1H-inden-2-yl)-N^1-(2-{[2-(4-hydroxy-2-oxo-2,3-dihydro-1,3-benzothiazol-7-yl)ethyl]amino}ethyl)-N^3-(2-phenylethyl)-β-alaninamide bis-trifluoroacetic acid salt]
- β2 Int Act: 0.99

Structure (SMILES): O=C(CCNCCc1cccc(Cl)c1)N(CCNCCc1ccc(O)c2[nH]c(=O)sc12)C1Cc2ccccc2C1 [Example 42, N^3-[2-(3-Chlorophenyl)ethyl]-N^1-(2,3-dihydro-1H-inden-2-yl)-N^1-(2-{[2-(4-hydroxy-2-oxo-2,3-dihydro-1,3-benzothiazol-7-yl)ethyl]amino}ethyl)-β-alaninamide bis-trifluoroacetic acid salt]
- β2 Int Act: 0.82

Structure (SMILES): COc1cccc(CCNCCC(=O)N(CCNCCc2ccc(O)c3[nH]c(=O)sc23)CC(C)(C)C)c1 [Example 43, N^1-(2,2-Dimethylpropyl)-N^1-(2-{[2-(4-hydroxy-2-oxo-2,3-dihydro-1,3-benzothiazol-7-yl)ethyl]amino}ethyl)-N^3-[2-(3-methoxyphenyl)ethyl]-β-alaninamide bis-trifluoroacetic acid salt]
- β2 Int Act: 0.67

Structure (SMILES): CC(C)(C)CN(CCNCCc1ccc(O)c2[nH]c(=O)sc12)C(=O)CCNCCc1cccc(F)c1 [Example 44, N^1-(2,2-Dimethylpropyl)-N^3-[2-(3-fluorophenyl)ethyl]-N^1-(2-{[2-(4-hydroxy-2-oxo-2,3-dihydro-1,3-benzothiazol-7-yl)ethyl]amino}ethyl)-β-alaninamide bis-trifluoroacetic acid salt]
- β2 Int Act: 0.73

Structure (SMILES): CC(C)(CN(CCNCCc1ccc(O)c2[nH]c(=O)sc12)C(=O)CCNCCc1ccccc1)c1ccccc1 [Example 45, N^1-(2-{[2-(4-Hydroxy-2-oxo-2,3-dihydro-1,3-benzothiazol-7-yl)ethyl]amino}ethyl)-N^1-(2-methyl-2-phenylpropyl)-N^3-(2-phenylethyl)-β-alaninamide bis-trifluoroacetic acid salt]
- β2 Int Act: 0.55

Structure (SMILES): O=C(CCNCCc1ccccc1Cl)N(CCNCCc1ccc(O)c2[nH]c(=O)sc12)C1CCC(F)(F)CC1 [Example 46, N^3-[2-(2-Chlorophenyl)ethyl]-N^1-(4,4-difluorocyclohexyl)-N^1-(2-{[2-(4-hydroxy-2-oxo-2,3-dihydro-1,3-benzothiazol-7-yl)ethyl]amino}ethyl)-β-alaninamide bis-trifluoroacetic acid salt]
- β2 Int Act: 0.78

Structure (SMILES): O=C(CCNCCc1cccc(Cl)c1)N(CCNCCc1ccc(O)c2[nH]c(=O)sc12)C1CCC(F)(F)CC1 [Example 47, N^3-[2-(3-Chlorophenyl)ethyl]-N^1-(4,4-difluorocyclohexyl)-N^1-(2-{[2-(4-hydroxy-2-oxo-2,3-dihydro-1,3-benzothiazol-7-yl)ethyl]amino}ethyl)-β-alaninamide bis-trifluoroacetic acid salt]
- β2 Int Act: 0.73

Structure (SMILES): O=C(CCNCCc1ccc(Cl)cc1)N(CCNCCc1ccc(O)c2[nH]c(=O)sc12)C1CCC(F)(F)CC1 [Example 48, N^3-[2-(4-Chlorophenyl)ethyl]-N^1-(4,4-difluorocyclohexyl)-N^1-(2-{[2-(4-hydroxy-2-oxo-2,3-dihydro-1,3-benzothiazol-7-yl)ethyl]amino}ethyl)-β-alaninamide bis-trifluoroacetic acid salt]
- β2 Int Act: 0.55

Structure (SMILES): O=C(CCNCCc1ccc(Cl)c(Cl)c1)N(CCNCCc1ccc(O)c2[nH]c(=O)sc12)C1CCC(F)(F)CC1 [Example 49, N^3-[2-(3,4-Dichlorophenyl)ethyl]-N^1-(4,4-difluorocyclohexyl)-N^1-(2-{[2-(4-hydroxy-2-oxo-2,3-dihydro-1,3-benzothiazol-7-yl)ethyl]amino}ethyl)-β-alaninamide bis-trifluoroacetic acid salt]
- β2 Int Act: 0.59

Structure (SMILES): O=C(CCNCCc1cccc(Cl)c1)N(CCNCCc1ccc(O)c2[nH]c(=O)sc12)C1CCCCCC1 [Example 50, N^3-[2-(3-Chlorophenyl)ethyl]-N^1-cycloheptyl-N^1-(2-{[2-(4-hydroxy-2-oxo-2,3-dihydro-1,3-benzothiazol-7-yl)ethyl]amino}ethyl)-β-alaninamide bis-trifluoroacetic acid salt]
- β2 Int Act: 0.91

Structure (SMILES): O=C(CCNCCc1ccc(Cl)cc1)N(CCNCCc1ccc(O)c2[nH]c(=O)sc12)C1CCCCCC1 [Example 51, N^3-[2-(4-Chlorophenyl)ethyl]-N^1-cycloheptyl-N^1-(2-{[2-(4-hydroxy-2-oxo-2,3-dihydro-1,3-benzothiazol-7-yl)ethyl]amino}ethyl)-β-alaninamide bis-trifluoroacetic acid salt]
- β2 Int Act: 0.59

Structure (SMILES): O=C(CCNCCc1cccs1)N(CCNCCc1ccc(O)c2[nH]c(=O)sc12)C1CCCCCC1 [Example 52, N^1-Cycloheptyl-N^1-(2-{[2-(4-hydroxy-2-oxo-2,3-dihydro-1,3-benzothiazol-7-yl)ethyl]amino}ethyl)-N^3-[2-(2-thienyl)ethyl]-β-alaninamide bis-trifluoroacetic acid salt]
- β2 Int Act: 0.92

Structure (SMILES): O=C(CCNCCc1ccc(F)c(F)c1)N(CCNCCc1ccc(O)c2[nH]c(=O)sc12)C1CCCCCC1 [Example 53, N^1-Cycloheptyl-N^3-[2-(3,4-difluorophenyl)ethyl]-N^1-(2-{[2-(4-hydroxy-2-oxo-2,3-dihydro-1,3-benzothiazol-7-yl)ethyl]amino}ethyl)-β-alaninamide bis-trifluoroacetic acid salt]
- β2 Int Act: 0.74

Structure (SMILES): O=C(CCNCCc1cccc(OC(F)F)c1)N(CCNCCc1ccc(O)c2[nH]c(=O)sc12)C1CCCCCC1 [Example 54, N^1-Cycloheptyl-N^3-{2-[3-(difluoromethoxy)phenyl]ethyl}-N^1-(2-{[2-(4-hydroxy-2-oxo-2,3-dihydro-1,3-benzothiazol-7-yl)ethyl]amino}ethyl)-β-alaninamide bis-trifluoroacetic acid salt]
- β2 Int Act: 0.69
